# Results: US20160366882A1, “AGROCHEMICAL COMPOSITIONS FOR INDUCING ABIOTIC STRESS TOLERANCE” (VIB VZW, priority 2012, published 2016)
# How the values were obtained:
# [1] = system: catalase-2 mutant A. thaliana plantlets (cat2-2); experiment: agar assay: rescue of cell death of catalase-2 mutants under photorespiratory conditions (Restricted Gas exchange Constant Light; RGCL); assay type: in vivo, Arabidopsis thaliana; details: grown under photorespiratory conditions
# Description: FIG. 2: effect of 5 μM of compound 4 on the rescue of cell death of the catalase-2 mutant A. thaliana plantlets when grown under photorespiratory conditions. Photorespiratory conditions are, for example, as herein used, restricted-gas-exchange-constant light conditions. […] Photorespiration (Rp) is a major source of detrimental effects and yield losses in crop plants. Catalase is one of the crucial proteins in the Rp process since it provides the dissipation sink of photosynthetic excitation overload in the role of Rp as a photo-protective mechanism. Secondly, and as part of the same process, catalase provides effective defense against excessive hydrogen peroxide levels, without requiring additional energy from other sources. Catalase knock-out mutant plants thus provide an excellent tool to study the process of Rp (see Vandenabeele S et al., (2003) PNAS 100, 26, 16113-16118). In the disclosure, we developed a high-throughput screening assay by using a catalase-2 deficient plant. […] Fv/Fm is presented as a ratio of variable fluorescence (Fv) over the maximum fluorescence value (Fm). […] On a regular basis Fv/Fm was monitored for all wells, using a Walz Maxi PAM imager. Several days after transfer to constant light the individual wells were visually scored for cell death. […] Three persons scored independently, and only a consensus of ⅔ scores were maintained as positive hits. […]
# [2] = system: Maize of the variety Maibi; experiment: frost tolerance in maize (crop condition index after frost regime); assay type: in vivo; details: 24 h later 6 hours at −2° C., assessed 2 days after treatment
# Description: Maize of the variety Maibi was sown in small pots (8×8×8 cm) filled with universal peat at 4 grains per pot. The plants were grown in a non-heated greenhouse until BBCH 13 (3 unfolded leaves). At that stage plants were either or not treated with dichloroprop-P (Duplosan DP, 600 g/l dichloroprop-P, Nufarm UK Limited), using a Birchmeier hand sprayer with an operating pressure of 2 bar. Per object 10 pots were treated. The 10 pots were put in line, 5 cm apart, and were sprayed overhead within 6 seconds. Four different concentrations of dichloroprop-P were applied: 4 mg/l, 8 mg/1, 12 mg/l or 16 mg/l. 24 hours after treatment, the plants were transferred in to a refrigerator that was set at −2° C. for 6 hours. Afterwards the plants were transferred back to the greenhouse. The day after the cold treatment (so 2 days after application of dichloroprop-P) the plants were assessed visually for frost damage. Plants were divided into 3 categories: Good crop condition (=2), only moderate crop condition (=1) or bad crop condition (=0), based on which a crop condition index was calculated, ranging from 0 (bad crop condition) to 100 (good crop condition).
# [3] = system: Oilseed rape of the variety Alessio; experiment: salt tolerance in oilseed rape (vitality index after salt water irrigation); assay type: in vivo; details: 24 h later 50 ml salt water per pot, 80 grams of NaCl per liter, assessed 3 and 4 days after treatment
# Description: Oilseed rape of the variety Alessio was sown in small pots (8×8×8 cm) filled with universal peat at 4 grains per pot. The plants were grown in a non-heated greenhouse until BBCH 13 (3 unfolded leaves). At that stage the number of plants per pot was reduced to 2, and the plants were either or not treated with dichloroprop-P (Duplosan DP, 600 g/l dichloroprop-P, Nufarm UK Limited), using a Birchmeier hand sprayer with an operating pressure of 2 bar. Per object 8 pots were treated. The 8 pots were put in line, 5 cm apart, and were sprayed overhead within 6 seconds. Two different concentrations of dichloroprop-P were applied: 4 mg/l or 8 mg/l. 24 hours after treatment, the plants were irrigated with salt water, giving 50 ml of water per pot at a concentration of 80 grams of NaCl per liter of water. The following days the plants were assessed visually for salt damage. Plants were divided into 3 categories: high vitality (=2), only moderate vitality (=1) or low vitality (=0), based on which a vitality index was calculated, ranging from 0 (low vitality) to 100 (high vitality).
smiles,measurement,setting,value
Cc1ccnc(NC(=O)COc2ccc(Cl)cc2Cl)c1 [variant 2],rescue of cell death of the cat2-2 mutant,[1]; 50 nM,rescues cell death
CCCCC(CC)COC(=O)C(C)Oc1ccc(Cl)cc1Cl (stereo not shown) [variant 1],rescue of cell death of the cat2-2 mutant,[1]; 100 nM,rescues cell death
CC(Oc1ccc(Cl)cc1Cl)C(=O)O (stereo not shown) [dichloroprop-P],crop condition after frost (frost tolerance),[2]; spray 4 mg/l at BBCH 13,better crop condition after frost
same,crop condition after frost (frost tolerance),[2]; spray 12 mg/l at BBCH 13,negative effect on frost tolerance
same,crop condition after frost (frost tolerance),[2]; spray 16 mg/l at BBCH 13,negative effect on frost tolerance
same,vitality in salt stress conditions (salt stress tolerance),[3]; spray 4 mg/l at BBCH 13,comparable increase in salt stress tolerance
same,vitality in salt stress conditions (salt stress tolerance),[3]; spray 8 mg/l at BBCH 13,comparable increase in salt stress tolerance
